Data: patent publication US10918645B2 (LIFEARC, priority 2016, dated 2021)
pIC50: −log10 of the molar value.

How the values were obtained:
[1] = tested on: transgenic Drosophila expressing LRRK2-G2019S in dopamine (DA) neurons; assay: Drosophila model survival rate; assay type: in vivo; details: significance compared to DMSO negative control
Source text: (§1) Drosophila model was used to evaluate Examples in vivo. The GAL4/UAS system developed by Andrea Brand and Norbert Perrimon in 1993 [45] was used to generate transgenic Drosophila expressing LRRK2-G2019S in dopamine (DA) neurons. The system has two parts: the GAL4 gene, encoding the yeast transcription activator protein GAL4, and the UAS (Upstream Activation Sequence), an enhancer to which GAL4 specifically binds to activate gene transcription. This system takes advantage of the yeast GAL4 transcription factor, which binds specifically to the UAS.
To express LRRK2-G2019S in DA neurons, the UAS-Wild Type-LRRK2 and UAS-G2019S-LRRK2 transgenes were combined with the dopa decarboxylase (ddc)-GAL4 driver. The 10 μM GW5074 was used for the positive control. […]
Twenty newly enclosed female Drosophila were collected and placed in a food vial. The Drosophila were moved to fresh food vials every other day at which time deaths were scored.
Based on Drosophila′ survival curve, the 50% survival time parameter indicates the time at which half of the Drosophila remained alive and was used to compare the survival ratio between the different groups. The mean 50% survival times and the standard errors were calculated based on 4 separate experiments for each group. The data were analysed by GraphPad PRISM® 6.0 software.

[2] = tested on: transgenic Drosophila expressing LRRK2-G2019S in dopamine (DA) neurons; assay: Drosophila model climbing assay (negative geotaxis); assay type: in vivo; details: significance compared to DMSO negative control
Source text: as §1
To express LRRK2-G2019S in DA neurons, the UAS-Wild Type-LRRK2 and UAS-G2019S-LRRK2 transgenes were combined with the dopa decarboxylase (ddc)-GAL4 driver. The 10 μM GW5074 was used for the positive control. The negative control group was DMSO control (all compounds were dissolved in DMSO with 1:1000 dillution). The Drosophila were maintained at 25° C. on a 12 hour light-12 hour dark cycle. GW5074 was used as positive control.
The negative geotaxis assay was used to analyse the locomotors ability of the Drosophila. Twenty Drosophila from each vial and 4 vials for each group were performed the climbing assay weekly.
The tested Drosophila were transferred into a vertical plastic tube (15 cm tall, 1.5 cm in diameter). After 30 min of rest at room temperature, the Drosophila were gently tapped to the bottom of the tube, the numbers of Drosophila that could climb to or above the test line within 10 seconds were counted and the percent were calculated.
The climbing abilities were analysed based on three separate experiments for each vial and the data were analysed by GraphPad PRISM® 6.0 software.

[3] = biological target: LRRK2 (phospho S935) in Drosophila brain lysates (Homo sapiens (Human), UniProt Q5S007, G2019S); assay: Drosophila model kinase assays at week 6; assay type: in vivo; details: ratio of phosphate LRRK2 protein to Flag protein, significance compared to DMSO negative control
Protocol: The 10 μM GW5074 was used for the positive control. The negative control group was DMSO control (all compounds were dissolved in DMSO with 1:1000 dillution). The Drosophila were maintained at 25° C. on a 12 hour light-12 hour dark cycle. GW5074 was used as positive control [47].
The adult Drosophila heads were homogenized on ice, and the brain lysates were performed kinase reaction in kinase reaction buffer with ATP and DTT.
Then the lysates were electrophoresed through 12% SDS-PAGE gels and transferred to PVDF membranes (Millipore). The membranes were blocked in TBST with 5% skimmed milk for 1 hour at room temperature and then incubated in anti-LRRK2 pSer935 antibody (Abcam, ab133450) and anti-Flag antibody overnight at 4° C.
The proteins were detected with HRP-conjugated secondary antibodies and ECL detection reagents. The optical density of immunoblotting was analysed by Image J software and the ratio of phosphate LRRK2 protein compare to Flag protein were calculated and the data were analysed by GraphPad PRISM® 6.0 software.

[4] = biological target: LRRK2 G2019S (Homo sapiens (Human), UniProt Q5S007, G2019S); assay: Adapta Kinase Assay (LRRK2_IC50 assay); assay type: biochemical; details: inhibition of LRRK2 G2019S
Protocol: In Adapta™ Kinase Assay (LRRK2_IC50 assay): the Kinase Reaction Buffer contained 5× Kinase Buffer S (Life Technologies, PV5213) and 2 mM DTT (Life Technologies, P2325).
The Adapta® universal kinase assay is a homogenous, fluorescent based immunoassay for the detection of ADP. In contrast to ATP depletion assays, the Adapta® assay is extremely sensitive to ADP formation such that a majority of the signal change occurs in the first 10-20% conversion of ATP to ADP. This makes the Adapta® universal kinase assay ideally suited for use with low activity kinases.
Prepare a 1× solution of kinase reaction buffer from the 5× Kinase Buffer S stock (listed above) by adding 2 ml of 5× stock to 8 ml of H2O to make 10 ml of 1× kinase reaction buffer. To this, add 20 μl of 1 M DTT.
Kinase reactions are performed in a 10 μl volume in low-volume 384-well plates. […] Other non—treated assay plates, while not tested, may also be suitable. The concentration of substrate in the assay is 100 μM, and the 1× kinase reaction buffer consists of 50 mM Tris-HCl pH8.5, 10 mM MgCl2, 1 mM EGTA, 0.01% Brij-35, and 2 mM DTT, plus any additional additives that may be required for a specific kinase. […] The plate is allowed to equilibrate at room temperature for at least 30 minutes before being read on a plate reader configured for Adapta™ TR-FRET.
The data presented in this document were generated using a BMG LABTECH PHERAstar plate reader using the appropriate filters and instrument settings for Adapta™. The Test Compounds are screened in 1% DMSO (final) in the well. For 8 point titrations, 5-fold serial dilutions are conducted from the starting concentration.
(§2) IC50 estimates were obtained using the software XLfit (IDBS Inc.).

[5] = biological target: JAK2 (Homo sapiens (Human), UniProt O60674); assay: LANCE Kinase Assay (JAK2_IC50 selectivity assay); assay type: biochemical
Source text: In LANCE® Kinase Assay (JAK2_IC50 selectivity assay): JAK2 (Invitrogen, Cat. No PV4288), ATP (Sigma, Cat. No. A7699-1G), DMSO (Sigma, Cat. No. D2650), DTT (Sigma, Cat. No. 43815), LANCE Ultra ULight™-JAK-1 peptide (Perkin Elmer, Cat. No. TRF0121), LANCE Eu-W1024 Anti-phosphotyrosine (PT66) (Perkin Elmer, Cat. No. AD0069), LANCE™ Detection Buffer (Perkin Elmer, Cat. No. CR97-100), Tofacitinib (PharmaBlock Sciences(Nanjing), Inc, Cat. No. PBN2011586-01); Equipments: Envision (Perkin Elmer), Bravo (Agilent); Consumables: 384 well Intermediate plate (Greiner, Cat. No. 781280), 384 well assay plate (Perkin Elmer, Cat. No. 6007299),
The assay involves two steps, the enzymatic step and the detection step with HTRF reagents. Step 1: During the enzymatic step the substrate-biotin is incubated with the kinase of interest. ATP is added to start the reaction. Step 2: The detection reagent catches the phosphorylated substrate and the resulting TR-FRET is proportional to the phosphorylation level.
Compound Preparation: Dissolve the test compounds into 30 mM DMSO solution and put them in nitrogen hood at room temperature for long term storage; Dilute the 30 mM compound in DMSO with 3-fold factor, total 11 concentrations; Aspirate 1 μl compound and then dilute them in 25 folds with kinase buffer. Mix well and balance 30 minutes at room temperature.
Kinase Reaction: Transfer 2.5 μl compounds in kinase buffer (4×) into assay plate by Agilent Bravo. Spin the plate; Transfer 5 μl enzyme mixture into the assay plate by using Eppendorf electronic multi-channel pipette. Spin the plate; Incubate the assay plate for 20 minutes at room temperature (23° C.); Add 2.5 μl kinase buffer with ATP into the assay plate by using Multidrop. Spin and seal the plate; Incubate the assay plate for 90 minutes at room temperature (23° C.).
Stop Reaction: Transfer 10 μl detection reagent (2 nM LANCE Eu-W1024 Anti-phosphotyrosine) into the assay plate by using Eppendorf electronic multi-channel pipette. Spin and seal the plate; Incubate the assay plate at room temperature (23° C.) for 60 minutes.
Detection and Read: The excitation wavelength is 340 nm, the primary emission wavelength is 615 nm and the secondary emission wavelength is 665 nm (for Cryptate and Ulight, respectively). Read the plate with EnVision to get the readout of both wavelengths; Calculate the ratio of 665 nm/615 nm.
as §2

JAK2, sequence (O60674 whole entry): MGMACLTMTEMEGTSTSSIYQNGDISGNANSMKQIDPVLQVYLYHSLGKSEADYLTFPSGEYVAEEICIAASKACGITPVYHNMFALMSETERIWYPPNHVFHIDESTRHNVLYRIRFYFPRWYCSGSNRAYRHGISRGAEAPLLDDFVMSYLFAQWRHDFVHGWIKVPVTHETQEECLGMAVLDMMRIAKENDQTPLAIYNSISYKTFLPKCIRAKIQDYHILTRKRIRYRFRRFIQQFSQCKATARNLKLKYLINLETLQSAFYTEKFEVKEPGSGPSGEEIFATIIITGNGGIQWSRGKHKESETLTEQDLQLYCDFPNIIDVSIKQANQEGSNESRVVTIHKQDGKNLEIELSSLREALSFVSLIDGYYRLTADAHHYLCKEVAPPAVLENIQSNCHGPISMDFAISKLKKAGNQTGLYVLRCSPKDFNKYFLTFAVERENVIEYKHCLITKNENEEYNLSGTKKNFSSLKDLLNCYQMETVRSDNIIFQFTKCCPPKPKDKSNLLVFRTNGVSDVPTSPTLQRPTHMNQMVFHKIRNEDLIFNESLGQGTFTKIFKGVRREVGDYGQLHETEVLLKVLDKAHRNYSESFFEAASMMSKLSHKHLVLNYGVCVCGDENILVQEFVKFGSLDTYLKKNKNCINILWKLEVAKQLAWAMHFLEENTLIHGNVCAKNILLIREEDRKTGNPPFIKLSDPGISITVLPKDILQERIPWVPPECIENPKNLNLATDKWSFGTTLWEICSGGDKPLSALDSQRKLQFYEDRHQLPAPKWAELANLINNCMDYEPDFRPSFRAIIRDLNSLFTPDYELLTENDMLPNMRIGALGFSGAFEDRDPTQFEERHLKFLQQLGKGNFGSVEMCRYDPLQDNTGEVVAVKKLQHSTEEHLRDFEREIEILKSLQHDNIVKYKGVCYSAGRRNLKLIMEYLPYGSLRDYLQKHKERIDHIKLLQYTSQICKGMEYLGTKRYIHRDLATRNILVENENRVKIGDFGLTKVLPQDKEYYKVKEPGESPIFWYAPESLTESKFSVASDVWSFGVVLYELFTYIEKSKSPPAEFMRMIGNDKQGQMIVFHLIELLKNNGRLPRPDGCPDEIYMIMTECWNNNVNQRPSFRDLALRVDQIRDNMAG
LRRK2 G2019S, sequence (Q5S007 970-2527 G2019S): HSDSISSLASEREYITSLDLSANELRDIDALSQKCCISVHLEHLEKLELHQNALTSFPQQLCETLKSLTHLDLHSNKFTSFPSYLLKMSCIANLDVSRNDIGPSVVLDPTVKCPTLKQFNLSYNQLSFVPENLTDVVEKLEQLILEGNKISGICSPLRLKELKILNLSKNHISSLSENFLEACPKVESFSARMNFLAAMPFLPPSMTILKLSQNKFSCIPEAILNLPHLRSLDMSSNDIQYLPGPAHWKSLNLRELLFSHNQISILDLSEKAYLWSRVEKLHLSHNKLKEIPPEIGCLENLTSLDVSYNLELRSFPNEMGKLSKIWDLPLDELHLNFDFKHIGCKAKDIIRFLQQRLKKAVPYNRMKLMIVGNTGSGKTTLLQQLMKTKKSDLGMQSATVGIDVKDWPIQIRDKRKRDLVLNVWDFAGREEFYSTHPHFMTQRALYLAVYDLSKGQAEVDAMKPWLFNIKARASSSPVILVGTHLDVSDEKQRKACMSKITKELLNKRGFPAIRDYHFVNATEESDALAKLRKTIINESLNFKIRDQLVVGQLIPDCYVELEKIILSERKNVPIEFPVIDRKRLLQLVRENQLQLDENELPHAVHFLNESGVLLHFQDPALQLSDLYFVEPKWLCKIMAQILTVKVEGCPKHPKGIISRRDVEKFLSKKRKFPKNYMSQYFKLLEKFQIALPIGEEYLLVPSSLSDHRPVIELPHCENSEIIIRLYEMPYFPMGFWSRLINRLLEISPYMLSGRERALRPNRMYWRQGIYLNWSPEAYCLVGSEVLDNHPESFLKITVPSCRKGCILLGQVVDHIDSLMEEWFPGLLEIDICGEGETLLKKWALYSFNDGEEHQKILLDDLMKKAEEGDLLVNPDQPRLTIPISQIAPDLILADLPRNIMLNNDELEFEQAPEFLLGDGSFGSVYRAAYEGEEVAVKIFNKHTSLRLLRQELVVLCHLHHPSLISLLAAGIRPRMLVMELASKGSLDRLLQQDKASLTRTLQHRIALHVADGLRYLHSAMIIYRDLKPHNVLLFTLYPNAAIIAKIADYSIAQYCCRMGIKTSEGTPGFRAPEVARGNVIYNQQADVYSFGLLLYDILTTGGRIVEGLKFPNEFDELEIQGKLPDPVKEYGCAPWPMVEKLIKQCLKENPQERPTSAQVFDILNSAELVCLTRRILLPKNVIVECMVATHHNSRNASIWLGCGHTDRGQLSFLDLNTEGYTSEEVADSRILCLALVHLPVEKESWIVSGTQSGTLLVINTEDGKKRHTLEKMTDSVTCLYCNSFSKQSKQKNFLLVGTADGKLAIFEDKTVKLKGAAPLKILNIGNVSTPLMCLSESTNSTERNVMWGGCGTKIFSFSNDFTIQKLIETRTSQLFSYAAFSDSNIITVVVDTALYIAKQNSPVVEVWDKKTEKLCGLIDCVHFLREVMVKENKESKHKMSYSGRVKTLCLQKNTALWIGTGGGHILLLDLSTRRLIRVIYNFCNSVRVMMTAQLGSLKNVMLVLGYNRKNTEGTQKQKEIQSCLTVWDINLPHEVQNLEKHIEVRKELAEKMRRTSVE

| pIC50 [4] | pIC50 [5] | SMILES | Survival Rate [1] | Climbing Assay 3 weeks ([2]; 3 weeks) | Climbing Assay 4 weeks ([2]; 4 weeks) | Climbing Assay 5 weeks ([2]; 5 weeks) | Climbing Assay 6 weeks ([2]; 6 weeks) | Kinase Assays [3] |
| --- | --- | --- | --- | --- | --- | --- | --- | --- |
| – | – | c1ccc2c(c1)CN(C1CCOCC1)c1nccc3[nH]nc-2c13 [Example 58] | ** (P < 0.01, compared to DMSO negative control) | * (P < 0.05, compared to DMSO negative control) | * (P < 0.05, compared to DMSO negative control) | ** (P < 0.01, compared to DMSO negative control) | ** (P < 0.01, compared to DMSO negative control) | * (P < 0.05, compared to DMSO negative control) |
| 6.77 | < 4.52 | CN1CCN(C2CCOCC2)c2nccc3[nH]nc1c23 [Example 93, 9-methyl-6-(tetrahydro-2H-pyran-4-yl)-6,7,8,9-tetrahydro-2H-1,2,5,6,9-pentaazabenzo[cd]azulene] | – | – | – | – | – | – |
